Test [1] deals with P. aeruginosa H1001 (fliC::luxCDABE). The test is classed as cell-based, Pseudomonas aeruginosa. The note with it: SPOT-synthesized unpurified crude peptide (~70% purity); bioluminescent engineered P. aeruginosa; BM2 medium; 4 h, 37 °C; reduction of luminescence; 200 to 3 μg mL−1 tested. As to the method: A peptide array composed of 20 peptides (15 guavanins, 4 Pg-AMP1 fragments, and magainin 2) was designed and synthesized by Kinexus Bioinformatics Corporation (Vancouver, BC). Peptides were produced in a standard mass of 80 μg by using cellulose support in SPOT technology. The crude synthetic peptides were obtained from cellulose membrane discs that had already been treated with ammonia gas to release the peptides from the membrane. Peptides were then dissolved overnight in distilled water and subsequently evaluated for their biological activities, as described below.
The antimicrobial activity of the synthesized peptides was evaluated against an engineered luminescent P. aeruginosa H1001 (fliC::luxCDABE) strain in 96-well microplates. Aqueous solutions of peptides released from the cellulose spots were diluted twofold in BM2 medium [62 mM potassium phosphate buffer pH 7; 2 mM MgSO4; 10 μM FeSO4; 0.4% (wt/vol) glucose] down the eight wells of a 96-well plate, achieving a final volume of 25 μL in each well. Subsequently, 50 μL of overnight culture of P. aeruginosa H1001 (fliC::luxCDABE) were subcultured in 5 mL of fresh LB media and grown until they reached an OD600 of 0.4. This growing bacteria culture was then diluted 4:100 (v/v) into fresh BM2 media and 25 μL of this diluted bacterial culture was transferred to the microplate wells containing 25 μL of peptide solution. The final peptide concentrations tested ranged from 200 to 3 μg mL^−1. The plates were incubated for 4 h at 37 °C with constant shaking at 50 rpm. Luminescence was measured on a Tecan […]luor Plus Microplate Reader (Tecan US, Morrisville, NC). The antimicrobial activity was evaluated by the ability of the peptides to reduce the luminescence of P. aeruginosa-lux strain compared to untreated cells. The AMP magainin 2 and the carbapenem meropenem were used as positive controls and distilled water was used as a negative control.

For test [2], the system named is Pseudomonas aeruginosa ATCC 27853. Format: cell-based. The settings on record: ATCC 27853, 18 h.
Excerpt: (§1) Lysogeny Broth (LB) was used for cultures of Acinetobacter baumannii ATCC 19606, Enterococcus faecalis ATCC 29212, Escherichia coli ATCC 25922, Klebsiella pneumoniae ATCC 13883, Pseudomonas aeruginosa ATCC 27853, and S. aureus ATCC 25923. Brain Heart Infusion (BHI) broth was used for cultures of Listeria ivanovii Li 4pVS2 and Streptococcus pyogenes ATCC 19615. Yeast peptone dextrose (YPD) medium was used for Candida species (C. albicans ATCC 90028 and C. parapsilosis ATCC 22019). MH (Mueller Hinton) broth was used for suspend centrifuged culture of bacteria and yeasts in logarithmic phase to an A630 of 0.01 (~10^6 cfu mL^−1), except for S. pyogenes, L. ivanovii, and E. faecalis that were suspended in their respective growth medium. […] A microplate reader (UVM 340, Asys Hitech) was used to monitor the antimicrobial susceptibility by measuring the change in A630. […] Each experiment was performed in triplicate with positive (0.7% formaldehyde) and negative (without peptide) inhibition controls.
The test system of test [3] is Klebsiella pneumoniae ATCC 13883. Format: cell-based. The settings on record: ATCC 13883, 18 h.
Excerpt: as §1
The subject of test [4] is Candida albicans ATCC 90028. The test is classed as cell-based. The settings on record: ATCC 90028, 18 h.
Excerpt: as §1
The test system of test [5] is Candida parapsilosis ATCC 22019. Format: cell-based. The settings on record: ATCC 22019, 18 h.
Excerpt: as §1
In test [6] the test system is E. coli ATCC 25922. Format: cell-based, Escherichia coli. As to the method:
Exponentially growing bacteria in LB were harvested by centrifugation, washed three times in PBS and suspended in the same buffer to a final concentration of 10^7 cfu mL^−1. One hundred microliters of this bacterial suspension was incubated with a dose of peptide corresponding to twofold the MIC. Then, aliquots of 10 µL were withdrawn at different times, diluted in LB, and spread onto LB agar plates. The cfu were counted after overnight incubation at 37 °C.

The subject of test [7] is E. coli ATCC 25922. As to the kind of experiment: SYTOX green uptake assay (membrane permeabilization). The test is classed as cell-based, Escherichia coli. The settings on record: 12.5 µM (twofold above the MIC), 1 h, 37 °C, PBS. As to the method: SG is impermeant to live cells and when the cell membrane is damaged, this dye penetrates into the cell and binds to intracellular DNA, due to its high-affinity to nucleic acids, leading to an increase in fluorescence. Exponentially growing bacteria (6 × 10^5 cfu mL^−1) were resuspended in PBS after centrifugation (1000 × g, 10 min, 4 °C) and washing steps. About 792 μL of the bacterial suspension was pre-incubated with 8 μL of 100 μM SG during 30 min at 37 °C in the dark. […] Results correspond to a representative experiment with negative (PBS) and positive (melittin) controls. Three independent experiments were performed.

The subject of test [8] is P. aeruginosa strain PAO1. As to the kind of experiment: Scarification skin infection mouse model. Format: in vivo, female CD-1 mice. As to the method: P. aeruginosa strain PAO1 was grown to an optical density at 600 nm (OD600) of 1 in tryptic soy broth medium. Subsequently cells were washed twice with sterile PBS, and resuspended to a final concentration of 5 × 10^7 CFU in 50 μL. To generate skin infection, female CD-1 mice (6 weeks old) were anesthetized with isoflurane and had their backs shaved. A superficial linear skin abrasion was made with a needle in order to damage the stratum corneum and upper layer of the epidermis. Five minutes after wounding, an aliquot of 50 μL containing 5 × 10^7 CFU of bacteria in PBS was inoculated over each defined area containing the scratch with a pipette tip. One day after the infection, peptides were administered to the infected area. Animals were euthanized and the area of scarified skin was excised 2 and 4 days post-infection, homogenized using a bead beater for 20 min (25 Hz), and serially diluted for CFU quantification. Two independent experiments were performed with four mice per group in each case. Statistical significance was assessed using a two-way ANOVA. Animals were maintained in accordance with the Guide for the Care and Use of Laboratory Animals in an AAALAC-accredited facility. All procedures were approved by the MIT’s Institutional Animal Care and Use Committee (IACUC), protocol number 1016-064-19.

Another test concerns K. pneumoniae 1825971. As to the kind of experiment: Antibiofilm assay. The test is classed as cell-based, Klebsiella pneumoniae. As to the method:
Overnight cultures of microorganisms [E. coli 0157, methicillin-resistant S. aureus (MRSA), K. pneumoniae 1825971, or C. albicans clinical isolate obtained from a blood culture maintained at LACEN (Laboratório Central de Saúde do Distrito Federal, a Brazilian reference laboratory for clinical isolates in Brasília, Brazil)] grown in LB broth (BD Difco) were diluted 1 in 100 in LB and Todd-Hewitt broth (BD Difco) or BM2 minimal medium [62 mM potassium phosphate buffer, pH 7.0, 7 mM (NH4)2SO4, 2 mM MgSO4, 10 μM FeSO4, 0.5% glucose], and 100 μL per well was added into 96-well round-bottom microplates. Absorbance at 600 nm was used to assess the planktonic cell growth. Non-adherent planktonic cells were removed from microtiter wells and washed twice with deionized water. Adherent cells were stained with 0.1% crystal violet for 20 min. The microplate wells were washed twice with deionized water, air dried, and solubilized with 110 μL of 70% ethanol. […] Biofilm formation was assessed by measuring the absorbance at 600 nm using a microplate reader (Bio-Tek Instruments, Inc., USA). The microdilution method for cationic peptides was used to determine the MIC for planktonic cells. Three biological replicates were performed for each experiment involving eight technical replicates.

Values after ≈ are worked out from the molar mass of the structure shown. Peptide text beside a SMILES is read from it. Where only a bound is given, the exact number is not on record here.

The compound `CC[C@H](C)[C@H](NC(=O)[C@H](CCCNC(=N)N)NC(=O)[C@H](Cc1ccc(O)cc1)NC(=O)CNC(=O)[C@H](Cc1ccc(O)cc1)NC(=O)[C@H](CCCNC(=N)N)NC(=O)[C@H](CC(C)C)NC(=O)[C@H](C)NC(=O)[C@H](CCC(N)=O)NC(=O)[C@H](CCC(=O)O)NC(=O)[C@@H](NC(=O)[C@H](CCC(N)=O)NC(=O)[C@H](CCCNC(=N)N)NC(=O)[C@H](CCSC)NC(=O)[C@H](Cc1ccc(O)cc1)NC(=O)[C@H](CCC(N)=O)NC(=O)[C@@H](N)CCCNC(=N)N)[C@@H](C)CC)C(=O)N[C@@H](CO)C(=O)N[C@@H](CCCNC(=N)N)C(=O)N[C@@H](CCCNC(=N)N)C(N)=O` [Guavanin 2] (H-RQYMRQIEQALRYGYRISRR-NH2) registered a minimal inhibitory concentration (MIC) in test [1] of 6.25 µg/mL (≈ 2.36 µM). Further, the “Active concentration (MIC)” value in test [2] is given as 25 µM; in test [3] it was 80 µM; in test [4], above 200 µM; in [5], at least 50 µM. For the same compound, in the test on E. coli ATCC 25922 [6] (12.5 µM (twofold above the MIC), 120 min), the “colony-forming units remaining (from 10^7)” value is on record as ~ 10^5 colony-forming units. Further, the “killing speed relative to [I^5, R^8] mastoparan” value in the test on E. coli ATCC 25922 [6] (time–kill, E. coli) is listed as “eightfold slower”. Moreover, in the test with E. coli ATCC 25922 [7], the “SYTOX Green influx (membrane permeabilization)” value is “only a slow and very small amount of dye influx”. Also, in test [8] (6.25 μg mL−1 (lowest dose) applied to infected area 24 h after infection, after 4 days), the “reduction in bacterial counts” value was found to be 3 log. In addition, in test [8] (doses 6.25, 25 and 100 µg mL−1, 4 days post-infection, two experiments, four mice per group), the “effect on CFU counts / bacterial load (two-way ANOVA)” value is “significantly reduced CFU counts”. Also, the antibiofilm activity entry with K. pneumoniae 1825971 is “only able to reduce C. albicans biofilms”.

The MIC is the least concentration at which growth counts as inhibited. A lower MIC goes with a more susceptible organism.

Values taken from publication PMC5902452, “In silico optimization of a guava antimicrobial peptide enables combinatorial exploration for peptide design” (Nature Communications, 2018).
